Laboratory results reported in ChEMBL document CHEMBL5360672, “Identification of Novel Dual-Target Estrogen Receptor α Degraders with Tubulin Inhibitory Activity for the Treatment of Endocrine-Resistant Breast Cancer” (J Med Chem, 2023).
Active and inactive are the calls of the source. No cut-off for these calls is given here.

Experiments:
[1] = biological target: T1, Estrogen receptor (Homo sapiens) (UniProt P03372); test: Binding affinity to human ERalpha assessed as relative binding affinity incubated under vibration for 1 min followed by 2 hrs incubation under dark condition by fluorescence polarization assay relative to estradiol; details: time 121.0 min
T1 sequence (whole entry): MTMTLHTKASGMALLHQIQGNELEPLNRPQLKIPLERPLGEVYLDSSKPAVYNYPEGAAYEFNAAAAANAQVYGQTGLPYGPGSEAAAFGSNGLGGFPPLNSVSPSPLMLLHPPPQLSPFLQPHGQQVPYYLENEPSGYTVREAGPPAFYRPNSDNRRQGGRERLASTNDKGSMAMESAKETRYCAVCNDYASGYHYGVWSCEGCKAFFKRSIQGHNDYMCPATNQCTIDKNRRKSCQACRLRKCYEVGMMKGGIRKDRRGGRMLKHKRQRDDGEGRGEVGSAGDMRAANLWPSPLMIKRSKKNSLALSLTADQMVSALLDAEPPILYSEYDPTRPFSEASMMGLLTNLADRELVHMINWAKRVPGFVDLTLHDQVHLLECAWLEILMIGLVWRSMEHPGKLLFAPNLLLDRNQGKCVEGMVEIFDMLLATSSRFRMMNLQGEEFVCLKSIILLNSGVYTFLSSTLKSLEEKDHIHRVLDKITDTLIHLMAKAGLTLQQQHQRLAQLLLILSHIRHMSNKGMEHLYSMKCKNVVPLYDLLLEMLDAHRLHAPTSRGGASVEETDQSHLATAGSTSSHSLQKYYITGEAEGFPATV

[2] = biological target: Estrogen receptor beta (Homo sapiens) (UniProt Q92731); test: Binding affinity to human ERbeta assessed as relative binding affinity incubated under vibration for 1 min followed by 2 hrs incubation under dark condition by fluorescence polarization assay relative to estradiol; details: time 121.0 min
Homo sapiens = organism: Homo sapiens; test: Selectivity ratio of relative binding affinity for human ERalpha to relative binding affinity to human ERbeta
MCF7 [3] = test: Antiproliferative activity against ERalpha positive human MCF7 cells assessed as inhibition of cell proliferation incubated for 72 hrs by CCK8 assay; type: functional, cell-based; details: MCF7, 72 h
T47D [4] = test: Antiproliferative activity against ERalpha positive human T47D cells assessed as inhibition of cell proliferation incubated for 72 hrs by CCK8 assay; type: functional, cell-based
[5] = Cytotoxicity against human MCF-10A cells assessed as inhibition of cell proliferation incubated for 72 hrs by CCK8 assay; type: toxicity, cell-based
[6] = Selectivity index, ratio of IC50 for cytotoxicity against human MCF-10A cells to IC50 for antiproliferative activity against human MCF7 cells; type: toxicity, cell-based; details: MCF-10A cells and MCF7 cells, read-out: Ratio IC50
[7] = Antiproliferative activity against human Tamoxifen-resistant LCC2 cells assessed as inhibition of cell proliferation incubated for 72 hrs by CCK8 assay; type: functional, cell-based
T47D [8] = test: Antiproliferative activity against human T47D cells harboring ERalpha D538G mutant assessed as inhibition of cell proliferation incubated for 72 hrs by CCK8 assay; type: functional, cell-based
T47D [9] = test: Antiproliferative activity against human T47D cells harboring ERalpha Y537S mutant assessed as inhibition of cell proliferation incubated for 72 hrs by CCK8 assay; type: functional, cell-based
MDA-MB-231 = test: Antiproliferative activity against ERalpha negative human MDA-MB-231 cells assessed as inhibition of cell proliferation incubated for 72 hrs by CCK8 assay; type: functional, cell-based; details: MDA-MB-231, 72 h
[10] = biological target: T1, Estrogen receptor (Homo sapiens); test: Induction of ERalpha degradation in human MCF7 cells at 5 uM incubated for 24 hrs by Western blot analysis; type: cell-based
[11] = biological target: T1, Estrogen receptor (Homo sapiens); test: Induction of ERalpha degradation in human MCF7 cells at 5 uM incubated for 24 hrs by Western blot analysis relative to SeCN-OBHSA derivatives; type: cell-based
[12] = biological target: T1, Estrogen receptor (Homo sapiens); test: Induction of ERalpha degradation in human MCF7 cells incubated for 6 to 24 hrs by Western blot analysis; type: cell-based; details: dose 0.5-5 µM, time 6-24 hrs
[13] = biological target: T1, Estrogen receptor (Homo sapiens); test: Induction of ERalpha degradation in human MCF7 cells at 1 uM incubated for 6 to 24 hrs by Western blot analysis; type: cell-based; details: time 6-24 hrs
[14] = biological target: T1, Estrogen receptor (Homo sapiens); test: Induction of ERalpha degradation in human MCF7 cells at 5 uM incubated for 24 hrs in the presence of MG-132 by Western blot analysis; type: cell-based
[15] = biological target: T1, Estrogen receptor (Homo sapiens); test: Induction of ERalpha degradation in human Tamoxifen-resistant LCC2 cells at 0.5 uM incubated for 6 to 24 hrs by Western blot analysis; type: cell-based; details: Tamoxifen-resistant LCC2 cell, time 6-24 hrs
[16] = tested on: Estrogen receptor (Homo sapiens), P03372 [D538G]; test: Induction of ERalpha degradation in human T47D cells harboring ERalpha D538G mutant at 0.5 to 5 uM incubated for 24 hrs by Western blot analysis; type: cell-based; details: dose 0.5-5 µM
[17] = tested on: Estrogen receptor (Homo sapiens), P03372 [Y537S]; test: Induction of ERalpha degradation in human T47D cells harboring ERalpha Y537S mutant at 0.5 to 5 uM incubated for 24 hrs by Western blot analysis; type: cell-based; details: dose 0.5-5 µM
Tubulin (Homo sapiens) [18] = biological target: T2, Tubulin (Homo sapiens) (UniProt P68371+Q9H4B7+P0DPH7+P68366+Q13509+Q71U36+P04350+Q3ZCM7+P07437+P68363+Q9BQE3+Q6PEY2+Q13885+Q9BVA1+Q9BUF5); test: Inhibition of tubulin polymerization (unknown origin) at 30 uM incubated for 60 mins by microplate reader analysis; type: protein-complex assay
Tubulin (Homo sapiens) [19] = biological target: T2, Tubulin (Homo sapiens); test: Disruption of microtubule network in human MCF7 cells assessed as ruptured microtubule network at 2 uM incubated for 48 hrs by DAPI staining based confocal laser scanning microscopic analysis; type: cell-based
Tubulin (Homo sapiens) [20] = biological target: T2, Tubulin (Homo sapiens); test: Disruption of microtubule network in human MCF7 cells assessed as chaotic microtubule network at 2 uM incubated for 48 hrs by DAPI staining based confocal laser scanning microscopic analysis; type: cell-based
Tubulin (Homo sapiens) [21] = biological target: T2, Tubulin (Homo sapiens); test: Disruption of microtubule network in human LCC2 cells assessed as ruptured microtubule network at 4 uM incubated for 48 hrs by DAPI staining based confocal laser scanning microscopic analysis; type: cell-based
Tubulin (Homo sapiens) [22] = biological target: T2, Tubulin (Homo sapiens); test: Disruption of microtubule network in human LCC2 cells assessed as chaotic microtubule network at 4 uM incubated for 48 hrs by DAPI staining based confocal laser scanning microscopic analysis; type: cell-based
MCF7 [23] = test: Antitumor activity against human MCF7 cells xenografted in Balb/c nude mouse assessed as reduction in Ki67 positive cells at 2 to 4 mg/kg, ip administered every other day for 20 days by immunohistochemistry analysis; type: functional, organism-based; details: dose 2-4 mg/kg, time 20.0 day
[24] = Toxicity in Balb/c nude mouse xenografted with human MCF7 cells assessed as body weight loss at 2 to 4 mg/kg, ip administered every other day for 20 days; type: organism-based; details: in vivo, 480 h, dose 2-4 mg/kg, time 20 day
Mus musculus [25] = test: In vivo induction of ERalpha degradation in BALB/c nude mouse xenografted with human MCF7 cells assessed as decrease in ERalpha expression in tumor at 2 to 4 mg/kg, ip administered every other day for 20 days by Western blot analysis; type: functional, organism-based; details: dose 2-4 mg/kg, time 20.0 day
[26] = Toxicity in Balb/c nude mouse xenografted with human MCF7 cells assessed as effect on heart morphology at 2 to 4 mg/kg, ip administered every other day for 20 days by H&E staining based analysis; type: organism-based; details: in vivo, 480 h, dose 2-4 mg/kg, time 20 day
[27] = Toxicity in Balb/c nude mouse xenografted with human MCF7 cells assessed as effect on liver morphology at 2 to 4 mg/kg, ip administered every other day for 20 days by H&E staining based analysis; type: organism-based; details: in vivo, 480 h, dose 2-4 mg/kg, time 20 day
[28] = Toxicity in Balb/c nude mouse xenografted with human MCF7 cells assessed as effect on kidney morphology at 2 to 4 mg/kg, ip administered every other day for 20 days by H&E staining based analysis; type: organism-based; details: in vivo, 480 h, dose 2-4 mg/kg, time 20 day
MCF7 [29] = test: Antitumor activity against human MCF7 cells xenografted in Balb/c nude mouse assessed as tumor growth inhibition at 2 mg/kg, ip administered every other day for 20 days relative to control; type: functional; details: MCF7, 480 h, time 20 day, read-out: TGI
MCF7 [30] = test: Antitumor activity against human MCF7 cells xenografted in Balb/c nude mouse assessed as tumor growth inhibition at 4 mg/kg, ip administered every other day for 20 days relative to control; type: functional; details: MCF7, 480 h, time 20 day, read-out: TGI
[31] = Antitumor activity against human Tamoxifen-resistant LCC2 cells xenografted in Balb/c nude mouse assessed as tumor growth inhibition at 2 mg/kg, ip administered every other day for 20 days relative to control; type: functional; details: Tamoxifen-resistant LCC2 cell, 480 h, time 20 day, read-out: TGI
Mus musculus [32] = test: In vivo induction of ERalpha degradation in BALB/c nude mouse xenografted with human tamoxifen-resistant LCC2 cells assessed as decrease in ERalpha expression in tumor at 2 mg/kg, ip administered every other day for 20 days by Western blot analysis; type: functional, organism-based; details: time 20.0 day
[33] = tested on: Tamoxifen-resistant LCC2 cell; test: Antitumor activity against human Tamoxifen-resistant LCC2 cells xenografted in Balb/c nude mouse assessed as reduction in Ki67 positive cells at 2 mg/kg, ip administered every other day for 20 days by immunohistochemistry analysis; type: functional, organism-based; details: time 20.0 day

Chain of Estrogen receptor beta (Homo sapiens) (Q92731 whole entry): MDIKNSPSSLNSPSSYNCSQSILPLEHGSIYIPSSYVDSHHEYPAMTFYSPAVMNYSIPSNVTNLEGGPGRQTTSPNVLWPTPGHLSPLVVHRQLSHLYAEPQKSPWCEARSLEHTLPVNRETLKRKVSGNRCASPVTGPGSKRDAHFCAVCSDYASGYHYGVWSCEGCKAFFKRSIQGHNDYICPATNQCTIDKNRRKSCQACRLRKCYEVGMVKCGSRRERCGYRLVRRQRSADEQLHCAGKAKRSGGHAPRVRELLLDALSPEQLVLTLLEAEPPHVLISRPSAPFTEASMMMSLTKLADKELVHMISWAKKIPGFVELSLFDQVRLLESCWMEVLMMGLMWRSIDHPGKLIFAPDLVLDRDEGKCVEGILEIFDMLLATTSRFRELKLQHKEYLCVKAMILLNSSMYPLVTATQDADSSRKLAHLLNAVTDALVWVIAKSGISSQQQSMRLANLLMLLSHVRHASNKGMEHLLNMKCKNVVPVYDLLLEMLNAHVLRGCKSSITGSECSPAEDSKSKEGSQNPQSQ
Chain of Estrogen receptor (Homo sapiens), P03372 [D538G] (P03372 whole entry D538G): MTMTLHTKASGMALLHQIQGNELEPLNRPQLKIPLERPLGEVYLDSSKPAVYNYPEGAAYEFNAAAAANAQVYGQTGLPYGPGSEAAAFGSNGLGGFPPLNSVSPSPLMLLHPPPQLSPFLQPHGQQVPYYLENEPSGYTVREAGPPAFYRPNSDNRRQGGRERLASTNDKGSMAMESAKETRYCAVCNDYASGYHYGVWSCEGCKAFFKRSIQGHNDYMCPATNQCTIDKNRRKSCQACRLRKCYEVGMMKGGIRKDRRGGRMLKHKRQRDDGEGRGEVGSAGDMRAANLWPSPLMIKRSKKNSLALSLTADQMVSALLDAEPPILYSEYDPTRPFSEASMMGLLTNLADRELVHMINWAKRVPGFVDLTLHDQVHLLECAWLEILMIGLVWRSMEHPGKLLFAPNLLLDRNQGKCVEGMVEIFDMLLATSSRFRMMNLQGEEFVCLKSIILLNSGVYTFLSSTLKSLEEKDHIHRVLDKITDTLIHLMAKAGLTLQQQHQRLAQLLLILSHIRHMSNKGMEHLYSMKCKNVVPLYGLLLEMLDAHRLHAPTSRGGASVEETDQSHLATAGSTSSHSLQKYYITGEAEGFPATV
Chain of Estrogen receptor (Homo sapiens), P03372 [Y537S] (P03372 whole entry Y537S): as the sequence (P03372 whole entry D538G) above, with Y537S, G538D counted along it

## CCN(c1ccccc1F)S(=O)(=O)C1CC2OC1C(c1ccc(NC(=O)CCCCC[Se]C#N)cc1)=C2c1ccc(O)cc1 (stereo unspecified)
[1]
  RBA: 7.26%
[2]
  RBA: 0.46%
Homo sapiens
  Selectivity ratio: 15.8
MCF7 [3]
  IC50: 0.09 µM
T47D [4]
  IC50: 2.82 µM
[5]
  IC50 at 72 h: 18.3 µM
[6]
  selectivity ratio: 203
[7]
  IC50: 2.81 µM
T47D [8]
  IC50: 3 µM
T47D [9]
  IC50: 1.44 µM
MDA-MB-231
  IC50: 3.7 µM
[10]
  Activity: Active
[11]
  Activity: Active
[12]
  Activity: Dose-Dependent Effect
[13]
  Activity: Active
[14]
  Activity: inactive
[15]
  Activity: 100%
[16]
  Activity: Active
[17]
  Activity: Active
Tubulin (Homo sapiens) [18]
  tubulin polymerization inhibition (active/not active): Active
Tubulin (Homo sapiens) [19]
  Activity: Active
Tubulin (Homo sapiens) [20]
  Activity: Active
Tubulin (Homo sapiens) [21]
  Activity: Active
Tubulin (Homo sapiens) [22]
  Activity: Active
MCF7 [23]
  Activity: Active
[24]
  Activity: Non-Toxic
Mus musculus [25]
  Activity: Active
[26]
  Activity: Non-Toxic
[27]
  Activity: Non-Toxic
[28]
  Activity: Non-Toxic
MCF7 [29]
  inhibition in vivo at 2 mg/kg: 69.1%
MCF7 [30]
  inhibition in vivo at 4 mg/kg: 79.3%
[31]
  inhibition in vivo at 2 mg/kg: 56.9%
Mus musculus [32]
  Activity: Active
[33]
  Activity: Active

## CC/C(=C(\c1ccc(O)cc1)c1ccc(OCCN(C)C)cc1)c1ccccc1 [AFIMOXIFENE]
[7]
  IC50: 20.9 µM
T47D [8]
  IC50: 9.13 µM
T47D [9]
  IC50: 8.9 µM
MDA-MB-231
  IC50: 17.2 µM

## N#C[Se]CCCCCC(=O)Nc1ccc(C2=C(c3ccc(O)cc3)C3CC(S(=O)(=O)N(CC(F)(F)F)c4cccc(Cl)c4)C2O3)cc1 (stereo unspecified)
[1]
  RBA: 4.4%
[2]
  RBA: 0.06%
Homo sapiens
  Selectivity ratio: 73.3
MCF7 [3]
  IC50: 1.09 µM
T47D [4]
  IC50: 4.26 µM
[5]
  IC50 at 72 h: 49.1 µM
[6]
  selectivity ratio: 45
[7]
  IC50: 3.96 µM
T47D [8]
  IC50: 3.42 µM
T47D [9]
  IC50: 3.76 µM
[11]
  Activity: Active

## COc1cccc(N(CC(F)(F)F)S(=O)(=O)C2CC3OC2C(c2ccc(NC(=O)CCCCC[Se]C#N)cc2)=C3c2ccc(O)cc2)c1 (stereo unspecified)
[1]
  RBA: 1.44%
[2]
  RBA: 0.13%
Homo sapiens
  Selectivity ratio: 11.1
MCF7 [3]
  IC50: 0.47 µM
T47D [4]
  IC50: 9.62 µM
[5]
  IC50 at 72 h: 26.9 µM
[6]
  selectivity ratio: 57.1
[7]
  IC50: 6.73 µM
T47D [8]
  IC50: 5.16 µM
T47D [9]
  IC50: 4.58 µM
[11]
  Activity: Active
